Experimental data published in US20070197452A1, “Treatment of amyloid-related diseases” (priority 2006, published 2007).
“Also recorded” adds a separate entry of the source.

Tests used:
[1] = biological target: T1, Aβ42 (Homo sapiens, UniProt P05067); assay: Cerebral Aβ42 content of hemi-brain homogenates (commercial kit); assay type: in vivo, mouse; settings: for brain Aβ42 levels: TgCRND8 mice with pre-existing disease, 28 days from 5 months of age
T1 construct: analyzed for Aβ40 and Aβ42 using commercially available kits; from tissue; host or cells: hemi-brain homogenates and plasma of TgCRND8 transgenic mice
Experimental: (§1) Plasma and Cerebral Aβ Content. Hemi-brain samples were homogenized in a buffered sucrose solution, followed by either 0.4% diethylamine/100 mM NaCl for soluble Aβ levels or cold formic acid for the isolation of total Aβ. After neutralization, the samples were diluted and analyzed for Aβ40 and Aβ42 using commercially available kits (BIOSOURCE International). Each hemisphere was analyzed in triplicate and the mean values±SEM reported. Western blot analyses were performed on all fractions using urea gels for Aβ species analyses. Aβ was detected using 6E10 (BIOSOURCE International) and Enhanced Chemiluminenscence (Amersham).
(§2) Plasma and cerebral Aβ content. Hemi-brain samples were homogenized in a buffered sucrose solution, followed by either a mixture of 0.4% diethylamine and 100 mM NaCl for soluble Aβ levels or cold formic acid for the isolation of total Aβ. After neutralization, samples were diluted and analyzed for Aβ40 and Aβ42 using commercially available kits (Biosource International). Each hemisphere was analyzed in triplicate and the mean±s.e.m. was reported. Western blot analyses were carried out on all fractions using urea gels for Aβ species analyses. Aβ was detected using 6E10 (Biosource International).

[2] = test system: TgCRND8 mice; assay: Vascular amyloid (Aβ) burden; assay type: in vivo, mouse; settings: prophylactic treatment, vs untreated
Experimental: Cerebral amyloid burden. Brains were removed and one hemisphere was fixed in 4% paraformaldehyde and embedded in paraffin wax in the mid sagittal plane. To generate sets of systematic uniform random sections, 5 μm serial sections were collected across the entire hemisphere. Sets of sections at 50 μm intervals were used for analyses (10-14 sections/set). Plaques were identified after antigen retrieval with formic acid, and incubation with primary anti-Aβ antibody (Dako M-0872), followed by secondary antibody (Dako StreptABCcomplex/horseradish kit). End products were visualized with DAB and were counter-stained with luxol fast blue. Amyloid plaque burden was assessed with Leco IA-3001 image analysis software interfaced with Leica microscope and Hitachi KP-M1U CCD video camera. Openlab imaging software (Improvision, Lexington, Mass.) was then used to convert micrographs to binary images for plaque number and plaque area determinations. Vascular amyloid burden was defined as amyloid originating from or surrounding blood vessels and was analysed similarly.
Cerebral Aβ burden. Brains were removed and fixed one hemisphere from each in 4% paraformaldehyde and embedded in paraffin wax in the midsagittal plane. Sets of sections at […] intervals for analyses (10-14 sections per set) were used. Plaques with primary Aβ-specific antibody (Dako M-0872) were identified and visualized with DAB. AP plaque burden was assessed with Openlab imaging software (Improvision) and used to convert micrographs to binary images for determinations of plaque number and plaque area. Vascular Aβ burden was defined as Aβ plaques originating from or surrounding blood vessels and was analyzed similarly.
Cerebral Aβ burden. Brains were removed and one hemisphere was fixed in 4% paraformaldehyde and embedded in paraffin wax in the mid sagittal plane. […] Aβ plaque burden was assessed with Leco IA-3001 image analysis software interfaced with Leica microscope and Hitachi KP-M1U CCD video camera. […] Vascular Aβ burden was defined as Aβ plaques originating from or surrounding blood vessels and was analyzed similarly.

[3] = biological target: T2, Aβ40 (Homo sapiens, UniProt P05067); assay: Cerebral Aβ40 content of hemi-brain homogenates (commercial kit); assay type: in vivo, mouse; settings: for brain Aβ40 levels: TgCRND8 mice with pre-existing disease, 28 days from 5 months of age
T2 construct: analyzed for Aβ40 and Aβ42 using commercially available kits; from tissue; host or cells: hemi-brain homogenates of TgCRND8 transgenic mice
Experimental: as §1, §2

[4] = biological target: T1, Aβ42; assay: Plasma Aβ42 level; assay type: in vivo, mouse; settings: TgCRND8 mice; 28 days of therapy at five months of age; untreated 1144±76 pg/ml
Experimental: as §1, §2

[5] = wild-type mice
Experimental: Mice. […] A cohort of animals (n=10 mice per treatment arm) entered the study at five months of age, and outcomes were then analyzed after one month of treatment. The body weight, coat characteristics and in cage behaviour were monitored. Mannitol was used as a negative control for potential alterations in caloric intake. All experiments were performed according to the Canadian Council on Animal Care guidelines.
Mice. […] Mannitol was used as a negative control for potential alterations in caloric intake.

[6] = test system: APP; assay: Analysis of APP in brain (western blot); assay type: in vivo, mouse; settings: treated TgCRND8 mice
Experimental: Analysis of APP in brain. Mouse hemi-brain samples were homogenized and spun at 109,000×g, in 20 mM Tris pH7.4,0.25M sucrose, 1 mM EDTA and 1 mM EGTA, and a protease inhibitor cocktail, mixed with 0.4% DEA (diethylamine)/100 mM NaCl. The supernatants were analysed for APPs levels by Western blotting using mAb 22C11, while the pellets were analysed for APP holoprotein with mAb C1/6.1 as previously described.
Analysis of APP processing. Mouse hemi-brain samples were homogenized and spun at 109,000 g, in 20 mM Tris pH 7.4, 0.25 M sucrose, 1 mM EDTA and 1 mM EGTA, and a protease inhibitor cocktail, mixed with a mixture of 0.4% DEA (diethylamine) and 100 mMNaCl. The supernatants were analyzed for APP levels by western blotting using the monoclonal antibody 22C11, and the pellets were analyzed for APP holoprotein with the monoclonal antibody C1/6.1 as previously described. […] The target protein was probed with polyclonal APP C-terminal fragment-specific antibody (Sigma) by western blotting.

[7] = TgCRND8 mice, prophylactic treatment, 4 months of age

T1 sequence (P05067 672-713 limits assumed): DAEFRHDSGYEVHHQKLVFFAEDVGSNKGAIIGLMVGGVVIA
T2 sequence (P05067 672-711 limits assumed): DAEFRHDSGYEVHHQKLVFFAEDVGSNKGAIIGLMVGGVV

| Compound | brain Aβ42 levels [1] | reduction of brain Aβ42 (range given for both Aβ40 and Aβ42) [1, 7] | total vascular Aβ load / vascular Aβ deposits [2] | brain Aβ40 levels [3] | reduction of brain Aβ40 (range given for both Aβ40 and Aβ42) [3, 7] | Plasma Aβ42 levels [4] [pg/mL] | survival, weight, fur condition, cage behavior [5] | brain area covered by cerebrovascular Aβ [2] | mean size of cerebrovascular deposits [2] | levels of APP holoprotein, APP glycosylation, APPs-α, APPs-β in brain homogenates [6] |
| --- | --- | --- | --- | --- | --- | --- | --- | --- | --- | --- |
| OC1C(O)C(O)C(O)C(O)C1O (stereo not drawn) [epi-cyclohexanehexol, 1,2,3,4,5/6-(epi-) cyclohexanehexol, reference compound] | no significant impact; also recorded: no significant effect | 22-62 % reduction | no change | no significant impact; also recorded: no significant effect | 22-62 % reduction | 1079 ± 79 |  |  |  |  |
| OC1C(O)C(O)C(O)C(O)C1O (stereo not drawn) [scyllo-cyclohexanehexol, 1,3,5/2,4,6-(scyllo-) cyclohexanehexol] | reduced levels |  |  | reduced levels |  |  | no effect on survival, weight, fur condition or cage behavior | reduced brain area covered by cerebrovascular Aβ | reduced mean size of cerebrovascular deposits | no effect |
